How the values were obtained:
[1] = Liquid; for Normal boiling temperature: Ebulliometric method (Recirculating still); for mass density: 298.15 K, 101.3 kPa
[2] = excess molar enthalpy (molar enthalpy of mixing); xn = mol fraction of the nth substance listed; settings: 101.3 kPa, Liquid, Flow calorimetry

OCCO [1,2-ethanediol]
Settings | Normal boiling temperature [°C]
[1] | 197.23

OCCO [1,2-ethanediol] + CCO
excess molar enthalpy [kcal/mol], [2]
Settings | 298.15 K | 308.15 K | 323.15 K
x1 = 0.0526 | 0.0266 | 0.0283 | 0.0307
x1 = 0.1045 | 0.0475 | 0.0506 | 0.0547
x1 = 0.1561 | 0.0636 | 0.0678 | 0.0734
x1 = 0.2075 | 0.0758 | 0.0807 | 0.0875
x1 = 0.2587 | 0.084 | 0.0904 | 0.0976
x1 = 0.3096 | 0.0907 | 0.0971 | 0.105
x1 = 0.3604 | 0.0945 | 0.101 | 0.109
x1 = 0.4109 | 0.0962 | 0.103 | 0.111
x1 = 0.4611 | 0.0962 | 0.103 | 0.111
x1 = 0.5112 | 0.0945 | 0.101 | 0.108
x1 = 0.561 | 0.091 | 0.0971 | 0.105
x1 = 0.6106 | 0.0858 | 0.0915 | 0.0986
x1 = 0.66 | 0.0793 | 0.085 | 0.0911
x1 = 0.7092 | 0.0716 | 0.0765 | 0.0822
x1 = 0.7581 | 0.063 | 0.067 | 0.0724
x1 = 0.8069 | 0.0528 | 0.0562 | 0.0601
x1 = 0.8554 | 0.0412 | 0.0432 | 0.0472
x1 = 0.9037 | 0.0277 | 0.0305 | 0.0329
x1 = 0.9518 | 0.0147 | 0.0156 | 0.0169

CCO [ethanol]
[1]
Settings | Normal boiling temperature [°C] | mass density [kg/m3]
– | 78.26 | 785.2

OCCO [1,2-ethanediol] + CCCO
excess molar enthalpy [kcal/mol], [2]
Settings | 298.15 K | 308.15 K | 323.15 K
x1 = 0.0644 | – | – | 0.0566
x1 = 0.0664 | 0.0498 | 0.0535 | –
x1 = 0.13 | 0.0849 | 0.0912 | 0.0966
x1 = 0.1915 | 0.109 | 0.117 | 0.125
x1 = 0.2511 | 0.126 | 0.135 | 0.144
x1 = 0.3089 | 0.137 | 0.147 | 0.156
x1 = 0.3648 | 0.144 | 0.152 | 0.163
x1 = 0.4191 | 0.147 | 0.155 | –
x1 = 0.4192 | – | – | 0.167
x1 = 0.4718 | 0.147 | 0.156 | 0.167
x1 = 0.5229 | 0.144 | 0.153 | 0.163
x1 = 0.5725 | 0.138 | 0.148 | 0.158
x1 = 0.6207 | 0.132 | 0.141 | 0.15
x1 = 0.6676 | 0.124 | 0.132 | 0.141
x1 = 0.7131 | 0.114 | 0.121 | 0.129
x1 = 0.7574 | 0.102 | 0.109 | 0.116
x1 = 0.8005 | 0.0897 | 0.0942 | 0.101
x1 = 0.8425 | 0.0741 | 0.0784 | 0.0838
x1 = 0.8833 | – | – | 0.0651
x1 = 0.8834 | 0.0581 | 0.0611 | –
x1 = 0.9231 | – | – | 0.0448
x1 = 0.9232 | 0.04 | 0.0426 | –
x1 = 0.9619 | 0.0209 | 0.0218 | 0.0229

OCCO [1,2-ethanediol] + CC(C)O
[2]
Settings | excess molar enthalpy [kcal/mol]
298.15 K, x1 = 0.0678 | 0.0521
298.15 K, x1 = 0.1326 | 0.0876
298.15 K, x1 = 0.1951 | 0.112
298.15 K, x1 = 0.2555 | 0.128
298.15 K, x1 = 0.3138 | 0.138
298.15 K, x1 = 0.3702 | 0.143
298.15 K, x1 = 0.4248 | 0.145
298.15 K, x1 = 0.4776 | 0.144
298.15 K, x1 = 0.5287 | 0.14
298.15 K, x1 = 0.5782 | 0.134
298.15 K, x1 = 0.6262 | 0.127
298.15 K, x1 = 0.6727 | 0.118
298.15 K, x1 = 0.7178 | 0.107
298.15 K, x1 = 0.7617 | 0.0951
298.15 K, x1 = 0.8042 | 0.0815
298.15 K, x1 = 0.8455 | 0.0677
298.15 K, x1 = 0.8857 | 0.0523
298.15 K, x1 = 0.9248 | 0.036
298.15 K, x1 = 0.9628 | 0.0185
308.15 K, x1 = 0.0675 | 0.0506
308.15 K, x1 = 0.1325 | 0.0874
308.15 K, x1 = 0.1953 | 0.112
308.15 K, x1 = 0.2558 | 0.128
308.15 K, x1 = 0.3143 | 0.138
308.15 K, x1 = 0.3708 | 0.144
308.15 K, x1 = 0.4254 | 0.145
308.15 K, x1 = 0.4783 | 0.144
308.15 K, x1 = 0.5294 | 0.141
308.15 K, x1 = 0.589 | 0.135
308.15 K, x1 = 0.627 | 0.127
308.15 K, x1 = 0.6735 | 0.118
308.15 K, x1 = 0.7186 | 0.107
308.15 K, x1 = 0.7624 | 0.0959
308.15 K, x1 = 0.8049 | 0.0828
308.15 K, x1 = 0.8462 | 0.0682
308.15 K, x1 = 0.8863 | 0.0527
308.15 K, x1 = 0.9252 | 0.0366
308.15 K, x1 = 0.9631 | 0.0188
323.15 K, x1 = 0.0678 | 0.0469
323.15 K, x1 = 0.1326 | 0.0815
323.15 K, x1 = 0.1951 | 0.105
323.15 K, x1 = 0.2555 | 0.121
323.15 K, x1 = 0.3138 | 0.131
323.15 K, x1 = 0.3702 | 0.138
323.15 K, x1 = 0.4247 | 0.14
323.15 K, x1 = 0.4775 | 0.14
323.15 K, x1 = 0.5286 | 0.136
323.15 K, x1 = 0.5781 | 0.131
323.15 K, x1 = 0.6261 | 0.124
323.15 K, x1 = 0.6727 | 0.116
323.15 K, x1 = 0.7178 | 0.105
323.15 K, x1 = 0.7617 | 0.0939
323.15 K, x1 = 0.8042 | 0.0816
323.15 K, x1 = 0.8456 | 0.0673
323.15 K, x1 = 0.8858 | 0.0522
323.15 K, x1 = 0.9248 | 0.036
323.15 K, x1 = 0.9628 | 0.0189

CC(C)O [propan-2-ol]
[1]
Settings | Normal boiling temperature [°C] | mass density [kg/m3]
– | 82.20 | 781.1
